Read-outs that look alike come from different tables or passages of the source.

Results on 3 molecules are retold here after US10391150B2, “Treatments for migraine and related disorders” (The University of Chicago, priority 2011, dated 2019).

Experiment [1] relates to microglia in hippocampal slice cultures. In kind it is cell-based, rat.
The test system of experiment [2] is SD in neocortex and hippocampus of anesthetized rat. Put plainly: SD threshold in vivo (0.5 M KCl injection) after nasal administration. As to conditions: a day after nasal treatment (IGF-1 150 μg; IL-11 1 μg; IFN-γ 50,000 units); control 1-8 nL. As to the method:
Images show experimental setups for nasal administration and testing. (FIG. 7A) Nasal injection setup showing heat lamp and thermo-regulator that maintains temperature at 37° C. plus nose cone used to deliver isoflurane anesthesia. (FIG. 7B) Operator is shown administering nasal IGF-1 solution, which is performed in a fume hood to adequately vent isoflurane from nose cone. (FIG. 7C) Image illustrates standard electrophysiology setup. Anesthetized animal is placed into a standard electrophysiology holder and anesthesia maintained by a nose cone delivering 3% isoflurane in oxygen. Arterial oxygen saturation is monitored with a pulse-oximeter. Animals are warmed to 37.5° C. with a heating plate. SD is induced by progressively injecting larger volumes of 0.5 M KCl from an 8 μm diameter microelectrode. SD is registered with a second microelectrode used for DC recordings placed more caudally. After SD is evoked by a given injection pulse, the stimulating electrode is withdrawn and a volume re-injected under mineral oil. The diameter of the resultant KCl injection sphere is then measured off line using a compound microscope and the injection volume calculated. For example, in the above whole animal experiments it took 1-8 nL of 0.5 M KCl to evoke SD in control brain regions while after acute IGF-1 this amount rose to 67-109 nL. A day after IGF-1 treatment the volume needed to evoked SD was 34-48 nL. IFN-γ treatment required 338 nL of 0.5 M KCl a day after treatment and IL-11 required 67-200 nL.
Rats (FIGS. 6 and 7) are anesthetized with inhalational isoflurane and kept warm. While anesthetized, animals are placed in a supine position and 50 μL of sterile drug (i.e., IFN-γ, IGF-1, or IL-11) solution [or sterile saline vehicle (sham control)] is administered nasally by delivering 5 μL alternating between the left and right naris every 2 min over 20 minutes. Animals are given nasal drug treatments daily at the same time for 7 days before subsequent experiments. Doses for all 3 agents begin with the effective doses noted in our work using slice cultures (1×), then include others (0.1× and 10×). The inventors base this strategy on the fact that the effective culture dose for IGF-1 (40 ng/mL) closely approximates the dose used in vivo (143 μg/kg).
This approach was applied to measurement of SD threshold (FIG. 10) after treatment (FIG. 7) with nasally administered IGF-1 (150 μg), IL-11 (1 μg), IFN-γ (50,000 units), and insulin (20 μg). […] Resistance against SD was always greater in hippocampus compared to neocortex (n=4, controls; n=3, acutely after IGF-1; n=6, one day after IGF-1; n=6, one day after IL-11; n=6, one day after IFN-γ; and n=3, acutely after insulin).
Nasal administration followed by SD threshold evaluation in vivo. Vehicle or human recombinant IGF-1 (150 μg) is administered intranasally. SD threshold is established by injection of nanoliter volumes of 0.5 M KCl into neocortex or hippocampus (−2.0 mm from Bregma and 1.5 mm lateral from midline at either 750 μm or 2,800 μm into brain, respectively) using a thin-walled glass pipette and Picospritzer. Once a threshold is established, it is confirmed two more times, with an exemplary record from a vehicle-sham animal shown below. […] The diameter of the injected sphere is then measured using a compound microscope and used to calculate the injected volume, then moles of potassium. […]

Experiment [3] concerns OS from cLTP in hippocampal slice cultures. In words: OS / reactive oxygen species generated from chemical long-term potentiation (cLTP) in slice cultures. The experiment is classed as cell-based, rat. As to conditions: 3 days treatment (IFN-γ 500 U/mL; IL-11; IGF-1), compared to shams. As to the method:
This beneficial effect of low-level IFN-γ is supported by results from rats. In rats, enrichment, which occurs with hippocampal learning, led to a significant elevation in hippocampal T-cells, IFN-γ and MBP.
Experiments were performed in rat hippocampal slices cultures and SD induced as previously described (Pusic et al., 2011). Results were derived from n≥3-6/group. […] This is consistent with the neural activity increase seen after SD, which mimics the hyperexcitability evident in migraine patients.
This prompted the inventors to examine whether insulin could reduce SD susceptibility by increasing CA3 pyramidal neuron bursting. The inventors induced SD trans-synaptically in rat HSC using electrical stimuli (100 μs pulses @ 10 Hz for 1 s) ranging from 1 to 10,000 nC in order to determine SD threshold in sham and experimental groups (Pusic et al., 2011). Results were based on n≥3-6/group. […] This insulin dose approximates the pharmacological levels seen in humans treated with nasal insulin. […] The inventors hypothesized that the effect of insulin occurred through IGF-1 receptor cross-talk.
The inventors use a well-accepted method for inducing cLTP in slice cultures (Kraig et al., 2010; Otmakhov et al., 2004a; Otmakhov et al., 2004b; Kopec et al., 2006). The protocol consists of raising cAMP levels and increasing synaptic activity using rolipram/forskolin applied in a Mg^2+-free Ringer's solution (36° C.) for 5 min, then allowing slices to recover in normal media.

Turning to `NC1=N[C@H](O)[C@H]2[C@H]3O[C@]4(O)O[C@@H]([C@@H](O)[C@@]2(N1)[C@@H]4O)[C@]3(O)CO` [TTX, tetrodotoxin], the “number of microglia moving long distances” value in experiment [1] is reported as “significantly increased the number of microglia moving long distances”.

As to lipopolyssacharide [LPS], the “number of microglia moving long distances” value in experiment [1] (slice cultures, vital imaging) is recorded as “significantly decreased the number of microglia moving long distances”.

B1: Interleukin 11 (protein, listed as Homo sapiens)
chain: MNCVCRLVLVVLSLWPDTAVAPGPPPGPPRVSPDPRAELDSTVLLTRSLLADTRQLAAQLRDKFPADGDHNLDSLPTLAMSAGALGALQLPGVLTRLRADLLSYLRHVQWLRRAGGSSLKTLEPELGTLQARLDRLLRRLQLLMSRLALPQPPPDPPAPPLAPPSSAWGGIRAAHAILGGLHLTLDWAVRGLLLLKTRL
As for B1, the “volume of 0.5 M KCl needed to evoke SD” value in experiment [2] is 67 to 200 nL. The “OS / reactive oxygen species generated from cLTP” value in experiment [3] was “significantly reduced OS”.
